As a reminder, the IC50 is the concentration needed to halve the response being measured.

Bounds are passed on as bounds.

Assay [1] deals with Hepatocyte growth factor receptor (Homo sapiens, UniProt P08581). Nature of the assay: Assay of Small Molecular Compounds for Inhibiting the Activity of c-MET Kinase: The assay is based on the LANCE TR-FRET technology of Perkin Elmer Inc., and the assay method is as follows:1. Dilution of compounds: a total of 11 concentrations were obtained using a 3-fold gradient dilution from the highest concentration of 2500 nM (the maximum final concentration of the drug used in this assay was 2500 nM, and the minimum final concentration was 0.042 nM).2. 2.5 μL of the gradient-diluted compounds were taken with a transfer pipette to a 384-well plate.3. Addition of enzyme: 5 μL of 2× c-MET kinase solution (concentration was 2 nM) was taken with a transfer pipette to the corresponding reaction well of the 384-well plate, mixed well and pre-reacted at room temperature for 5 minutes.4. 2.5 μL 4× Ultra ULight™-JAK-1 (Tyr1023) Peptide (concentration was 400 nM)/ATP (concentration was 40 μM) mixture was taken with a transfer pipette to the corresponding reaction well of the 384-well plate.5. Negative control: 2.5 μL/well 4× substrate/ATP mixture and 7.5 μL 1× Kinase Assay Buffer were added to the wells of the 384-well plate.6. Positive control: 2.5 μL/well 4× substrate/ATP mixture, 2.5 μL/well 1× Kinase Assay Buffer containing 16% DMSO, and 5 µL/well 2× c-MET kinase solution were added to the 384-well plate. The final concentration of DMSO in the reaction system was 4%.7. The mixture was mixed well and then centrifuged and reacted at room temperature in dark for 60 min.8. Termination of the enzymatic reaction: 5 μL of 4× stop solution was taken with a transfer pipette to the wells of the 384-well plate, mixed and then centrifuged, and reacted at room temperature for 5 min.9. Development of the reaction: 5 μL of 4× detection solution was taken with a transfer pipette to the wells of the 384-well plate for color development, and the mixture was mixed and then centrifuged and reacted at room temperature for 60 min.10. The 384-well plate was placed into the Envision plate reader and the signal was detected using the appropriate program.11. Analysis and processing of the raw data:12. The drug concentrations and the corresponding inhibition rates were input into GraphPad Prism5 for calculation, and the inhibition rate of the compounds were calculated as follows: inhibition rate (%)=(reading of positive well−reading of experimental well)/(reading of positive control well−reading of negative control well)×100%. Processing with GraphPad Prism5 software yielded the corresponding IC50 values (the concentration of the compound at which 50% of the highest inhibition of the enzyme is achieved).
Chain of Hepatocyte growth factor receptor (P08581 whole entry): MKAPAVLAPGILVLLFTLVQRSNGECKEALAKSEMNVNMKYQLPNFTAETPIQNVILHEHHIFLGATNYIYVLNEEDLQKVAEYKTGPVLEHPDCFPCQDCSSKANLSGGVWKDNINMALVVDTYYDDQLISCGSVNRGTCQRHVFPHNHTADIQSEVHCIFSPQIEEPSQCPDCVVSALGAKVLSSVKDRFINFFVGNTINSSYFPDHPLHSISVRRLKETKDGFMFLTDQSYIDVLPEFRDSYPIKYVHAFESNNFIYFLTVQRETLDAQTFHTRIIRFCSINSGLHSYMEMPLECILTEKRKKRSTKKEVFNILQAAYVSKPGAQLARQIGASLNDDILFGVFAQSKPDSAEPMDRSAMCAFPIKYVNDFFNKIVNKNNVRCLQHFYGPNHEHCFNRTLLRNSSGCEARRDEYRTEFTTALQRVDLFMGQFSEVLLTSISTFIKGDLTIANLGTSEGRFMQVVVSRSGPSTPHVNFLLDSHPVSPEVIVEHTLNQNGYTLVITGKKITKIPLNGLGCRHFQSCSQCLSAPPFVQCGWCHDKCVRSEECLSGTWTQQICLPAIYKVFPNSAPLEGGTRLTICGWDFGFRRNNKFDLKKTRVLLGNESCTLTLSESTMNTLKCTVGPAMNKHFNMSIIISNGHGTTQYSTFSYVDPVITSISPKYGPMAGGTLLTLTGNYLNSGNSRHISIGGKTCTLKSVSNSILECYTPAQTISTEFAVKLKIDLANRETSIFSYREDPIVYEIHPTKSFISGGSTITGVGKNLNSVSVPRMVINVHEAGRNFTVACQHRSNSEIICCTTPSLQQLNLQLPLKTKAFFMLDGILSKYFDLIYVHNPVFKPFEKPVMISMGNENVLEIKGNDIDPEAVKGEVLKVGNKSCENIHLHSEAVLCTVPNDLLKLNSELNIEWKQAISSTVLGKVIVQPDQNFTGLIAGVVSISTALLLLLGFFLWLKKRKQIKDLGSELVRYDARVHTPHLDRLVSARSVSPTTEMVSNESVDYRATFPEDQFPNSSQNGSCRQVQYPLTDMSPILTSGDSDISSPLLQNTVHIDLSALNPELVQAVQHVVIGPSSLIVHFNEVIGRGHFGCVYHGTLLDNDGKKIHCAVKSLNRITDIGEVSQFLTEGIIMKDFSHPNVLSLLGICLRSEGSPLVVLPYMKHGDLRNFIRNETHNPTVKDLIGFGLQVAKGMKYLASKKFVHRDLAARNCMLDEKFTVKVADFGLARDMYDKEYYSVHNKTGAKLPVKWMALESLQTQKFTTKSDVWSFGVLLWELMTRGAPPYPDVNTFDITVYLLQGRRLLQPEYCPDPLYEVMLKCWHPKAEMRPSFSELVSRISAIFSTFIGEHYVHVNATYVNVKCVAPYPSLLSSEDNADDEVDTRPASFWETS

Assay [2] deals with Vascular endothelial growth factor receptor 2 (Homo sapiens, UniProt P35968). Nature of the assay: Assay of Small Molecular Compounds for Inhibiting the Activity of VEGFR-2 Kinase: The assay is based on the LANCE TR-FRET technology of Perkin Elmer Inc., and the assay method is as follows:1. Dilution of compounds: a total of 11 concentrations were obtained using a 3-fold gradient dilution from the highest concentration of 2500 nM (the maximum final concentration of the drug used in this assay was 2500 nM, and the minimum final concentration was 0.042 nM).2. 2.5 μL of the gradient-diluted compounds were taken with a transfer pipette to a 384-well plate.3. Addition of enzyme: 5 μL of 2× VEGFR-2 kinase solution (concentration was 0.5 nM) was taken with a transfer pipette to the corresponding reaction well of the 384-well plate, mixed well and pre-reacted at room temperature for 30 minutes.4. 2.5 μL 4× Ultra ULight™-JAK-1 (Tyr1023) Peptide (concentration was 200 nM)/ATP (concentration was 40 μM) mixture was taken with a transfer pipette to the corresponding reaction well of the 384-well plate.5. Negative control: 2.5 μL/well 4× substrate/ATP mixture and 7.5 μL 1× Kinase Assay Buffer were added to the wells of the 384-well plate.6. Positive control: 2.5 μL/well 4× substrate/ATP mixture, 2.5 μL/well 1× Kinase Assay Buffer containing 16% DMSO, and 5 μL/well 2× VEGFR-2 kinase solution were added to the 384-well plate. The final concentration of DMSO in the reaction system was 4%.7. The mixture was mixed well and then centrifuged and reacted at room temperature in dark for 60 min.8. Termination of the enzymatic reaction: 5 μL of 4× stop solution was taken with a transfer pipette to the wells of the 384-well plate, mixed and then centrifuged, and reacted at room temperature for 5 min.9. Development of the reaction: 5 μL of 4× detection solution was taken with a transfer pipette to the wells of the 384-well plate for color development, and the mixture was mixed and then centrifuged and reacted at room temperature for 60 min.10. The 384-well plate was placed into the Envision plate reader and the signal was detected using the appropriate program.11. Analysis and processing of the raw data:The drug concentrations and the corresponding inhibition rates were input into GraphPad Prism5 for calculation, and the inhibition rate of the compounds were calculated as follows: inhibition rate (%)=(reading of positive well−reading of experimental well)/(reading of positive control well−reading of negative control well)×100%. Processing with GraphPad Prism5 software yielded the corresponding IC50 values (the concentration of the compound at which 50% of the highest inhibition of the enzyme is achieved).
Chain of Vascular endothelial growth factor receptor 2 (P35968 whole entry): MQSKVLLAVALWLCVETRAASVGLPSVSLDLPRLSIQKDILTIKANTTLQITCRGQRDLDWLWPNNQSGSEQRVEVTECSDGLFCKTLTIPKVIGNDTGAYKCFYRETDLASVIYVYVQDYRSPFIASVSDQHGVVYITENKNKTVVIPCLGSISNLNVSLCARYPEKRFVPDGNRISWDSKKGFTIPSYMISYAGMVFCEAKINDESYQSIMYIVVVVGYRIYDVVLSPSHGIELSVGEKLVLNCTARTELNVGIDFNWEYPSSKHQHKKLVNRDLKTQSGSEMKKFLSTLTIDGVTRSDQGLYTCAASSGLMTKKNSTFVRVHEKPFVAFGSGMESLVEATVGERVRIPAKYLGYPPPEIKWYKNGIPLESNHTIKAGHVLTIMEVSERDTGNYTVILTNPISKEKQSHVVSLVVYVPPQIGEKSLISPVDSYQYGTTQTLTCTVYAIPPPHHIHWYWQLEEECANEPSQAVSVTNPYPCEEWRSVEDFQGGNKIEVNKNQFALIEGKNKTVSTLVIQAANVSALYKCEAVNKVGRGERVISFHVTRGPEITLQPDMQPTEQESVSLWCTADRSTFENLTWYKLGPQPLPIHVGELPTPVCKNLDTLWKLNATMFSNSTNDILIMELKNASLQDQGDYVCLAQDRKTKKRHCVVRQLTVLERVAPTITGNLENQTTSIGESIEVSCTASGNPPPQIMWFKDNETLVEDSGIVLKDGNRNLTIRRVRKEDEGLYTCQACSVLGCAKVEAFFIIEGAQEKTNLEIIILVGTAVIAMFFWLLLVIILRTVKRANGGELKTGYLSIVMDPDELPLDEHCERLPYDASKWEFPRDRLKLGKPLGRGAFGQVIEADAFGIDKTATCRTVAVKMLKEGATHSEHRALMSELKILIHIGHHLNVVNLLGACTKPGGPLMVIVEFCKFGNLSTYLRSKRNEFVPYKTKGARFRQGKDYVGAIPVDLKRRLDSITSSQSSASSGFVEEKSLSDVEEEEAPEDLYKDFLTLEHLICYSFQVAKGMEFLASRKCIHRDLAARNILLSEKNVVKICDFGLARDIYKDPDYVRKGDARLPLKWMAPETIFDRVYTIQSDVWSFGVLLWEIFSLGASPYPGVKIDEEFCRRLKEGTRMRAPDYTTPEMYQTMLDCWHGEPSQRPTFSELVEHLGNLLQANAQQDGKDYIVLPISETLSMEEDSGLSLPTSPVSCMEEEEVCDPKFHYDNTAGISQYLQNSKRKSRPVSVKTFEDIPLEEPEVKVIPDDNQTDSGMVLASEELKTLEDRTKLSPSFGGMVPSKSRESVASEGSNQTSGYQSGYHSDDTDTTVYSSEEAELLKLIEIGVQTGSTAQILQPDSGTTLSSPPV

Take `O=C(Nc1ccc(F)cc1)C1(C(=O)Nc2ccc(Oc3ccnc4cc(OC5COC5)c5c(c34)OCCO5)c(F)c2)CC1`: the IC50 in assay [1] and in assay [2] was below 50 nM in each case.
For `COc1cc2nccc(Oc3ccc(NC(=O)C4(C(=O)Nc5ccc(F)cc5)CC4)cc3)c2c2c1OCCO2`, the IC50 in assay [1] and in assay [2] was below 50 nM in each case.
Turning to `CN(C)CCCOc1cc2nccc(Oc3ccc(NC(=O)C4(C(=O)Nc5ccc(F)cc5)CC4)cc3F)c2c2c1OCCO2`, the IC50 in assay [1] and in assay [2] was below 50 nM each time.
Turning to `O=C(Nc1ccc(F)cc1)C1(C(=O)Nc2ccc(Oc3ccnc4cc(OC5CCOCC5)c5c(c34)OCCO5)c(F)c2)CC1`, the half-inhibitory concentration (IC50) in assay [1] was below 50 nM.
Take `O=C(Nc1ccc(F)cc1)C1(C(=O)Nc2ccc(Oc3ccnc4cc(OCCCN5CCCC5)c5c(c34)OCCO5)c(F)c2)CC1`: the IC50 in assay [1] and in assay [2] was below 50 nM throughout.
In the case of `COCCCOc1cc2nccc(Oc3ccc(NC(=O)C4(C(=O)Nc5ccc(F)cc5)CC4)cc3F)c2c2c1OCCO2`, the IC50 in assay [1] and in assay [2] was below 50 nM throughout.
Regarding `COCCN(C)CCCOc1cc2nccc(Oc3ccc(NC(=O)C4(C(=O)Nc5ccc(F)cc5)CC4)cc3F)c2c2c1OCCO2`, the IC50 in assay [1] and in assay [2] was below 50 nM each time.
`O=C(Nc1ccc(F)cc1)C1(C(=O)Nc2ccc(Oc3ccnc4cc(OCCCN5CCOCC5)c5c(c34)OCCO5)cc2F)CC1`: the IC50 in assay [1] and in assay [2] was below 50 nM throughout.
With `CC1(O)CCN(CCCOc2cc3nccc(Oc4ccc(NC(=O)C5(C(=O)Nc6ccc(F)cc6)CC5)cc4F)c3c3c2OCCO3)CC1`, the 50% inhibitory concentration (IC50) in assay [1] and in assay [2] was below 50 nM each time.
For `O=C(Nc1ccc(F)cc1)C1(C(=O)Nc2ccc(Oc3ccnc4cc(OCCCN5CCOCC5)c5c(c34)OCCO5)cc2Cl)CC1`, the IC50 in assay [1] is below 50 nM.
In the case of `O=C(Nc1ccc(F)cc1)C1(C(=O)Nc2ccc(Oc3ccnc4cc(OCCCO)c5c(c34)OCCO5)c(F)c2)CC1`, the IC50 in assay [1] and in assay [2] was below 50 nM in each case.
For `CC(C)(O)COc1cc2nccc(Oc3ccc(NC(=O)C4(C(=O)Nc5ccc(F)cc5)CC4)cc3F)c2c2c1OCCO2`, the IC50 in assay [1] and in assay [2] was below 50 nM throughout.
As to `COc1cc2nccc(Oc3cc(Cl)c(NC(=O)C4(C(=O)Nc5ccc(F)cc5)CC4)cc3F)c2c2c1OCCO2`, the IC50 is below 50 nM in assay [1] and above 5000 nM in assay [2].
On to `CC1(N)CCN(CCCOc2cc3nccc(Oc4ccc(NC(=O)C5(C(=O)Nc6ccc(F)cc6)CC5)cc4F)c3c3c2OCCO3)CC1`, for which the IC50 in assay [1] and in assay [2] was below 50 nM each time.
As for `CC(C)Oc1cc2nccc(Oc3ccc(NC(=O)C4(C(=O)Nc5ccc(F)cc5)CC4)cc3F)c2c2c1OCCO2`, the IC50 in assay [1] was below 50 nM.
On to `CCOc1cc2nccc(Oc3ccc(NC(=O)C4(C(=O)Nc5ccc(F)cc5)CC4)cc3F)c2c2c1OCCO2`, for which the IC50 in assay [1] and in assay [2] was below 50 nM in each case.
Regarding `O=C(Nc1ccc(F)cc1)C1(C(=O)Nc2ccc(Oc3ccnc4cc(OCCCN5CCOCC5)c5c(c34)OCCO5)c(Cl)c2)CC1`, the IC50 in assay [1] is below 50 nM.
Regarding `CC1(C)CCN(CCCOc2cc3nccc(Oc4ccc(NC(=O)C5(C(=O)Nc6ccc(F)cc6)CC5)cc4F)c3c3c2OCCO3)CC1`, the IC50 in assay [1] and in assay [2] was below 50 nM throughout.
In the case of `CN1CCN(CCCOc2cc3nccc(Oc4ccc(NC(=O)C5(C(=O)Nc6ccc(F)cc6)CC5)cc4F)c3c3c2OCCO3)CC1`, the IC50 in assay [1] and in assay [2] was below 50 nM throughout.
As to `COc1cc2nccc(Oc3ccc(NC(=O)C4(C(=O)Nc5ccc(F)cc5)CC4)cc3F)c2c2c1OCCO2`, the IC50 in assay [1] and in assay [2] was below 50 nM throughout.
Take `N#CCOc1cc2nccc(Oc3ccc(NC(=O)C4(C(=O)Nc5ccc(F)cc5)CC4)cc3F)c2c2c1OCCO2`: in assay [1], the IC50 was below 50 nM.
In the case of `O=C(Nc1ccc(F)cc1)C1(C(=O)Nc2ccc(Oc3ccnc4cc(OCCCN5CCOCC5)c5c(c34)OCCO5)cc2)CC1`, the IC50 in assay [1] and in assay [2] was below 50 nM throughout.
In the case of `CN(CCCOc1cc2nccc(Oc3ccc(NC(=O)C4(C(=O)Nc5ccc(F)cc5)CC4)cc3F)c2c2c1OCCO2)C1CCC1`, the IC50 in assay [1] and in assay [2] was below 50 nM in each case.
In the case of `O=C(Nc1ccc(F)cc1)C1(C(=O)Nc2ccc(Oc3ccnc4cc(OCCO)c5c(c34)OCCO5)c(F)c2)CC1`, the IC50 in assay [1] and in assay [2] was below 50 nM each time.
As to `O=C(Nc1ccc(F)cc1)C1(C(=O)Nc2ccc(Oc3ccnc4cc(OCCCN5CCOCC5)c5c(c34)OCCO5)c(F)c2)CC1`, the IC50 in assay [1] and in assay [2] was below 50 nM throughout.
As for `COCCOc1cc2nccc(Oc3ccc(NC(=O)C4(C(=O)Nc5ccc(F)cc5)CC4)cc3F)c2c2c1OCCO2`, the IC50 in assay [1] and in assay [2] was below 50 nM throughout.
Take `O=C(Nc1ccc(F)cc1)C1(C(=O)Nc2ccc(Oc3ccnc4cc(OC5CCOC5)c5c(c34)OCCO5)c(F)c2)CC1` (stereo unspecified): the IC50 in assay [1] and in assay [2] was below 50 nM each time.
Consider `O=C(Nc1ccc(F)cc1)C1(C(=O)Nc2ccc(Oc3ccnc4cc(OCCCN5CCS(=O)(=O)CC5)c5c(c34)OCCO5)c(F)c2)CC1`, for which the IC50 in assay [1] and in assay [2] was below 50 nM each time.
Consider `NC1(COc2cc3nccc(Oc4ccc(NC(=O)C5(C(=O)Nc6ccc(F)cc6)CC5)cc4F)c3c3c2OCCO3)CC1`, for which the half-inhibitory concentration (IC50) in assay [1] and in assay [2] was below 50 nM each time.
As for `CN(C)CCCCCCOc1cc2nccc(Oc3ccc(NC(=O)C4(C(=O)Nc5ccc(F)cc5)CC4)cc3F)c2c2c1OCCO2`, the IC50 in assay [1] and in assay [2] was below 50 nM each time.
For `O=C(Nc1ccc(F)cc1)C1(C(=O)Nc2ccc(Oc3ccnc4cc(OCCCN5CCCCC5)c5c(c34)OCCO5)c(F)c2)CC1`, the IC50 in assay [1] and in assay [2] was below 50 nM throughout.
On to `N#CCCCOc1cc2nccc(Oc3ccc(NC(=O)C4(C(=O)Nc5ccc(F)cc5)CC4)cc3F)c2c2c1OCCO2`, for which the IC50 in assay [1] and in assay [2] was below 50 nM each time.
For `COc1cc2nccc(Oc3ccc(NC(=O)C4(C(=O)Nc5ccc(F)cc5)CC4)c(F)c3)c2c2c1OCCO2`, the IC50 in assay [1] and in assay [2] was below 50 nM in each case.

The values are drawn from ChEMBL document CHEMBL5729245, “Dioxinoquinoline compounds, preparation method and uses thereof” (2022).
